Reference: paper PMC10209615, “Pharmacological inhibition of LSD1 suppresses growth of hepatocellular carcinoma by inducing GADD45B” (MedComm, 2023)

Key:
Hep3B xenograft = test: Cell‐derived xenograft (CDX) model; format: in vivo, nude mice; conditions: 100 mg/kg i.p., 18 days
Experimental: (§1) For CDX models, HCC cells (HepG2, Hep3B) were harvested, and cells suspension (5 × 10^6 − 1 × 10^7 cells per mouse) were subcutaneously injected into the hind flank region of nude mice. For PDX models, fresh HCC tissues obtained from West China Hospital were minced into 2–5 mm^3 sizes to build the PDX models. The HCC tissue fragments were transplanted into the hind flank region of NOD/SCID mice within 2 h. Once the tumor volume reached ∼2 cm^3, the PDX models were expanded.
(§2) When the tumor volume reached approximately 100 mm^3, CDX & PDX tumor‐bearing mice were randomly divided into groups: (1) blank solvent; (2) ZY0511 50 mg/kg per day, i.p.; (3) ZY0511 100 mg/kg per day, i.p.; and (4) combinatorial treatment of ZY0511 50 mg/kg with DTP3 30 mg/kg, per day, i.p. Tumor sizes and animal body weights were monitored every 3 days, and tumor volumes were calculated as 0.5 × length × width^2. TGI rate was calculated as (1 − tumor volume of treated group/tumor volume of control group) x 100%.

HepG2 xenograft = test: Cell‐derived xenograft (CDX) model; format: in vivo, nude mice; conditions: 100 mg/kg i.p., 18 days
Experimental: as §1, §2

PLC/PRF/5 = test: EdU incorporation assay; conditions: PLC/PRF/5, 96 h
Experimental: EdU assay was utilized to detect proliferating cells. […] EdU‐positive cells were detected by employing high‐throughput screening (HTS; Thermo Fisher), and the EdU incorporation rate was calculated.

Hep3B = test: Apoptosis analysis (Annexin V, flow cytometry); format: cell-based, human; conditions: 48 h
Experimental: (§3) Cells were fixed using 70% ethanol and stained with a Cell Cycle Detection Kit (KeyGEN). For apoptosis analysis, cells were exposed to ZY0511 alone or in combination with DTP3 for 48 h. Cells were harvested and stained with PE Annexin V Apoptosis Detection Kit (BD). The cell cycle or apoptosis induction was detected by using a flow cytometer (Agilent NovoCyte). Results were assessed by NovoExpress software (Agilent NovoCyte).

HepG2 = test: Apoptosis analysis (Annexin V, flow cytometry); format: cell-based, human; conditions: HepG2, 48 h
Experimental: as §3

Fes = target: T1, Fes (Homo sapiens, UniProt P07332); test: Kinase activity detection (Eurofins); format: biochemical; conditions: ZY0511 1 µM, read-out: Inhibition rate
T1 construct: purchased Eurofins Pharma Discovery Services (KinaseProfiler)
Experimental: (§4) The activity of ZY0511 against 104 cancer‐related kinases was carried out by Eurofins Pharma Discovery Services (Celle Lévescault, France).

CK1γ1 = target: T2, CK1γ1 (Homo sapiens, UniProt Q9HCP0); test: Kinase activity detection (Eurofins); format: biochemical; conditions: ZY0511 1 µM, read-out: Inhibition rate
T2 construct: purchased Eurofins Pharma Discovery Services
Experimental: as §4

Bmx = target: T3, Bmx (Homo sapiens, UniProt P51813); test: Kinase activity detection (Eurofins); format: biochemical; conditions: ZY0511 1 µM, read-out: Inhibition rate
T3 construct: purchased Eurofins Pharma Discovery Services (KinaseProfiler)
Experimental: as §4

CSK = target: T4, CSK (Homo sapiens, UniProt P41240); test: Kinase activity detection (Eurofins); format: biochemical; conditions: ZY0511 1 µM, read-out: Inhibition rate
T4 construct: purchased Eurofins Pharma Discovery Services (KinaseProfiler)
Experimental: as §4

Abl (T315I) = target: T5, Abl (T315I) (Homo sapiens, UniProt P00519, T315I); test: Kinase activity detection (Eurofins); format: biochemical; conditions: ZY0511 1 µM, read-out: Inhibition rate
T5 construct: purchased Eurofins Pharma Discovery Services
Experimental: as §4

IGF-1R = target: T6, IGF-1R (Homo sapiens, UniProt P08069); test: Kinase activity detection (Eurofins); format: biochemical
T6 construct: purchased Eurofins Pharma Discovery Services
Experimental: as §4

MAPK2 = target: T7, MAPK2 (Homo sapiens, UniProt P28482); test: Kinase activity detection (Eurofins); format: biochemical; conditions: ZY0511 1 µM, read-out: Activation rate
T7 construct: purchased Eurofins Pharma Discovery Services (KinaseProfiler)
Experimental: as §4

cKit (D816H) = target: T8, cKit (D816H) (Homo sapiens, UniProt P10721, D816H); test: Kinase activity detection (Eurofins); format: biochemical; conditions: ZY0511 1 µM, read-out: Activation rate
T8 construct: purchased Eurofins Pharma Discovery Services (KinaseProfiler)
Experimental: as §4

Yes = target: T9, Yes (Homo sapiens, UniProt P07947); test: Kinase activity detection (Eurofins); format: biochemical; conditions: ZY0511 1 µM, read-out: Inhibition rate
T9 construct: purchased Eurofins Pharma Discovery Services
Experimental: as §4

BRK = target: T10, BRK (Homo sapiens, UniProt Q13882); test: Kinase activity detection (Eurofins); format: biochemical; conditions: ZY0511 1 µM, read-out: Inhibition rate
T10 construct: purchased Eurofins Pharma Discovery Services (KinaseProfiler)
Experimental: as §4

PKD2 = target: T11, PKD2 (Homo sapiens, UniProt Q9BZL6); test: Kinase activity detection (Eurofins); format: biochemical; conditions: ZY0511 1 µM, read-out: Inhibition rate
T11 construct: purchased Eurofins Pharma Discovery Services
Experimental: as §4

ALK = target: T12, ALK (Homo sapiens, UniProt Q9UM73); test: Kinase activity detection (Eurofins); format: biochemical; conditions: ZY0511 1 µM, read-out: Activation rate
T12 construct: purchased Eurofins Pharma Discovery Services (KinaseProfiler)
Experimental: as §4

NIM1 = target: T13, NIM1 (Homo sapiens, UniProt Q8IY84); test: Kinase activity detection (Eurofins); format: biochemical; conditions: ZY0511 1 µM, read-out: Inhibition rate
T13 construct: purchased Eurofins Pharma Discovery Services
Experimental: as §4

IKKα = target: T14, IKKα (Homo sapiens, UniProt O15111); test: Kinase activity detection (Eurofins); format: biochemical; conditions: ZY0511 1 µM, read-out: Activation rate
T14 construct: purchased Eurofins Pharma Discovery Services (KinaseProfiler)
Experimental: as §4

Ros = target: T15, Ros (Homo sapiens, UniProt P08922); test: Kinase activity detection (Eurofins); format: biochemical; conditions: ZY0511 1 µM, read-out: Inhibition rate
T15 construct: purchased Eurofins Pharma Discovery Services
Experimental: as §4

HIPK3 = target: T16, HIPK3 (Homo sapiens, UniProt Q9H422); test: Kinase activity detection (Eurofins); format: biochemical; conditions: ZY0511 1 µM, read-out: Inhibition rate
T16 construct: purchased Eurofins Pharma Discovery Services (KinaseProfiler)
Experimental: as §4

cKit = target: T17, cKit (Homo sapiens, UniProt P10721); test: Kinase activity detection (Eurofins); format: biochemical; conditions: ZY0511 1 µM, read-out: Activation rate
T17 construct: purchased Eurofins Pharma Discovery Services (KinaseProfiler)
Experimental: as §4

FAK = target: T18, FAK (Homo sapiens, UniProt Q05397); test: Kinase activity detection (Eurofins); format: biochemical; conditions: ZY0511 1 µM, read-out: Inhibition rate
T18 construct: purchased Eurofins Pharma Discovery Services
Experimental: as §4

EGFR (L861Q) = target: T19, EGFR (L861Q) (Homo sapiens, UniProt P00533, L861Q); test: Kinase activity detection (Eurofins); format: biochemical; conditions: ZY0511 1 µM, read-out: Inhibition rate
T19 construct: purchased Eurofins Pharma Discovery Services (KinaseProfiler)
Experimental: as §4

[1] = target: T20, PI3 Kinase (p110α (H1047R)/p85α) (Homo sapiens, UniProt P42336, H1047R); test: Kinase activity detection (Eurofins); format: biochemical; conditions: ZY0511 1 µM, read-out: Inhibition rate
T20 construct: purchased Eurofins Pharma Discovery Services (KinaseProfiler)
Experimental: as §4

MST3 = target: T21, MST3 (Homo sapiens, UniProt Q9Y6E0); test: Kinase activity detection (Eurofins); format: biochemical; conditions: ZY0511 1 µM, read-out: Inhibition rate
T21 construct: purchased Eurofins Pharma Discovery Services (KinaseProfiler)
Experimental: as §4

CHK2 = target: T22, CHK2 (Homo sapiens, UniProt O96017); test: Kinase activity detection (Eurofins); format: biochemical; conditions: ZY0511 1 µM, read-out: Activation rate
T22 construct: purchased Eurofins Pharma Discovery Services (KinaseProfiler)
Experimental: as §4

EphA2 = target: T23, EphA2 (Homo sapiens, UniProt P29317); test: Kinase activity detection (Eurofins); format: biochemical; conditions: ZY0511 1 µM, read-out: Activation rate
T23 construct: purchased Eurofins Pharma Discovery Services (KinaseProfiler)
Experimental: as §4

PKCι = target: T24, PKCι (Homo sapiens, UniProt P41743); test: Kinase activity detection (Eurofins); format: biochemical; conditions: ZY0511 1 µM, read-out: Inhibition rate
T24 construct: purchased Eurofins Pharma Discovery Services
Experimental: as §4

EGFR (L858R) = target: T25, EGFR (L858R) (Homo sapiens, UniProt P00533, L858R); test: Kinase activity detection (Eurofins); format: biochemical; conditions: ZY0511 1 µM, read-out: Inhibition rate
T25 construct: purchased Eurofins Pharma Discovery Services (KinaseProfiler)
Experimental: as §4

LKB1 = target: T26, LKB1 (Homo sapiens, UniProt Q15831); test: Kinase activity detection (Eurofins); format: biochemical; conditions: ZY0511 1 µM, read-out: Inhibition rate
T26 construct: purchased Eurofins Pharma Discovery Services (KinaseProfiler)
Experimental: as §4

FGFR4 = target: T27, FGFR4 (Homo sapiens, UniProt P22455); test: Kinase activity detection (Eurofins); format: biochemical; conditions: ZY0511 1 µM, read-out: Inhibition rate
T27 construct: purchased Eurofins Pharma Discovery Services
Experimental: as §4

B-Raf = target: T28, B-Raf (Homo sapiens, UniProt P15056); test: Kinase activity detection (Eurofins); format: biochemical; conditions: ZY0511 1 µM, read-out: Inhibition rate
T28 construct: purchased Eurofins Pharma Discovery Services (KinaseProfiler)
Experimental: as §4

T6 sequence (P08069 31-1367, species assumed): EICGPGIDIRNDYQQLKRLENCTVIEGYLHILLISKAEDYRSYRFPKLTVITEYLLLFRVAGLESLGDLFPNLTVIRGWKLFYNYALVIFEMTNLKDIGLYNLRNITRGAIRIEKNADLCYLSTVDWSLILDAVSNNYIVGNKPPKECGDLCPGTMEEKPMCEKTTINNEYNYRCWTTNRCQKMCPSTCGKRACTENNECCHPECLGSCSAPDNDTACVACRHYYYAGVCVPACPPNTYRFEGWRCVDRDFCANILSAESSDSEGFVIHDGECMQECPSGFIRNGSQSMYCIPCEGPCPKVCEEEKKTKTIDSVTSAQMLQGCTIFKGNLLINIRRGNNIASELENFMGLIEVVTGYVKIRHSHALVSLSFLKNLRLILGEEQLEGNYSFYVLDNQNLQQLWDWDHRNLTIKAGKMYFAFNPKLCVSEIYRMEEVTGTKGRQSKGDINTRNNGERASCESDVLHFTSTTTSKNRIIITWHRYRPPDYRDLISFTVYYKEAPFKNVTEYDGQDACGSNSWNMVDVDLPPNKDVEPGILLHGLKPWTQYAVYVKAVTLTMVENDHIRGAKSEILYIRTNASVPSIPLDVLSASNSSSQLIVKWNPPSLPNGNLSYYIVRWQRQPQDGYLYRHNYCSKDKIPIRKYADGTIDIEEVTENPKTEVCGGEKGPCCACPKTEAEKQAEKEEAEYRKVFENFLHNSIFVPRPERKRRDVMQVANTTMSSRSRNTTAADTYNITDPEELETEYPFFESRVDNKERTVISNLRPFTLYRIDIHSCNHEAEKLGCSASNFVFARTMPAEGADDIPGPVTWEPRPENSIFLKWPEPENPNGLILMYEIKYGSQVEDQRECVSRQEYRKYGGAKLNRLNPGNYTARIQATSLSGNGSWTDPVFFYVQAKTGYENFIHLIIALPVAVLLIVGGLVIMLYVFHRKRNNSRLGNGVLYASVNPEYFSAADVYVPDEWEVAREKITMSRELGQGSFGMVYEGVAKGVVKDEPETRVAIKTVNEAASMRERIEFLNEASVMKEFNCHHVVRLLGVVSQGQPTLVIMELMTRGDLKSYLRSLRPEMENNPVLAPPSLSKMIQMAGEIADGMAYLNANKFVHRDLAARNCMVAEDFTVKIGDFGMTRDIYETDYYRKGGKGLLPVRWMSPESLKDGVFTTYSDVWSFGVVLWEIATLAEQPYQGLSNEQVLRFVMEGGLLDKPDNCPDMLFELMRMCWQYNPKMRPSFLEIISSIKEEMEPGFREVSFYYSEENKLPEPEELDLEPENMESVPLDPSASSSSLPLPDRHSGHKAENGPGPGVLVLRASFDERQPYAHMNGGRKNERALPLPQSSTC
T27 sequence (P22455 22-802, species assumed): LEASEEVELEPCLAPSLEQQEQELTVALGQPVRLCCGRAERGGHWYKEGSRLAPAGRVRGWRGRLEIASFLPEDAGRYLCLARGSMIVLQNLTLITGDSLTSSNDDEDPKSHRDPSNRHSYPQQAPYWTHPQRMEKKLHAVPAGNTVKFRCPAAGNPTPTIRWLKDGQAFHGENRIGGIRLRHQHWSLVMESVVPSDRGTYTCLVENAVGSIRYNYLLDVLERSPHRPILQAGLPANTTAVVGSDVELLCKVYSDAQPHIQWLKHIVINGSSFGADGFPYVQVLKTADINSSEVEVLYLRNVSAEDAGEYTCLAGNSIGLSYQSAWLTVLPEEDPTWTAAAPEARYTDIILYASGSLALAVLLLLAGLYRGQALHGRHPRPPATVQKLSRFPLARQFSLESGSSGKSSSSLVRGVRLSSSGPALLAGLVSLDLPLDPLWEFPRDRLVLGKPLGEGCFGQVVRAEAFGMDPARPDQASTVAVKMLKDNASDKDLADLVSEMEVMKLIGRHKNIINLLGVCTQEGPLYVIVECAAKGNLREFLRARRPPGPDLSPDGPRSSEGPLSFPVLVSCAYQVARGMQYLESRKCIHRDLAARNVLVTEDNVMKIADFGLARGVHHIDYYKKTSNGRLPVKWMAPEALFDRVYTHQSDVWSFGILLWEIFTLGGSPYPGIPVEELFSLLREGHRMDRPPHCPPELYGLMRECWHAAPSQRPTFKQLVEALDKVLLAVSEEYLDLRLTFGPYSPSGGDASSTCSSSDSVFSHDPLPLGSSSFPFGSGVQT
T25 sequence (P00533 25-1210 L858R): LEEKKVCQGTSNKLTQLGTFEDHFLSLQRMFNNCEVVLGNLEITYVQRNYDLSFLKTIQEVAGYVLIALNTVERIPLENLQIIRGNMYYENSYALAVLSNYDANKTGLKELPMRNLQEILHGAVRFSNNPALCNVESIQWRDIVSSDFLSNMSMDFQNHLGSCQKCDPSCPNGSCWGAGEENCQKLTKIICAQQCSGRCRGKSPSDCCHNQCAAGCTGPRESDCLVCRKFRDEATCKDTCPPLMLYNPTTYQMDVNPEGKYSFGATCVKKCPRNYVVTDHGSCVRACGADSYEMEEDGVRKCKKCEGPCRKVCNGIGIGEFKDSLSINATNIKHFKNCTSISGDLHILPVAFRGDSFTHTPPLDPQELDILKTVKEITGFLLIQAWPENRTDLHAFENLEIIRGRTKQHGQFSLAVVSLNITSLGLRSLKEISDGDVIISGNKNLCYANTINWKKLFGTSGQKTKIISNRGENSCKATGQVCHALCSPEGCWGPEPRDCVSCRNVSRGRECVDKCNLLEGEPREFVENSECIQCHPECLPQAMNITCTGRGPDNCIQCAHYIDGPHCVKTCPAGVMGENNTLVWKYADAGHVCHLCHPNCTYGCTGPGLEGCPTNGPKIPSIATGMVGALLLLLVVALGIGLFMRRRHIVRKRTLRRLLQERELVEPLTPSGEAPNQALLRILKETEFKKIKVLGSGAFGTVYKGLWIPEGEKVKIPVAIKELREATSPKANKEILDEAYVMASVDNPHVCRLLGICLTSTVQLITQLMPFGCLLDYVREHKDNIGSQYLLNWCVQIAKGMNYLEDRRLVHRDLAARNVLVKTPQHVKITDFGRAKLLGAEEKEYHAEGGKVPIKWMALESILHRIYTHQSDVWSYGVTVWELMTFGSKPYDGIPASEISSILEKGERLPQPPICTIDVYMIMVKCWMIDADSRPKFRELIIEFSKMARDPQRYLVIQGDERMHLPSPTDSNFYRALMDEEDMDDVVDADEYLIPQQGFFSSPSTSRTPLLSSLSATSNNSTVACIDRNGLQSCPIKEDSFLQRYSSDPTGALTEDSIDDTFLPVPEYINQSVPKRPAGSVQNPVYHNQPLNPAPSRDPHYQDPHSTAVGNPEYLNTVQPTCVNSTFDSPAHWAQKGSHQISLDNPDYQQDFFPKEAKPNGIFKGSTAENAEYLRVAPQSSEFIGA
T24 sequence (P41743 whole entry): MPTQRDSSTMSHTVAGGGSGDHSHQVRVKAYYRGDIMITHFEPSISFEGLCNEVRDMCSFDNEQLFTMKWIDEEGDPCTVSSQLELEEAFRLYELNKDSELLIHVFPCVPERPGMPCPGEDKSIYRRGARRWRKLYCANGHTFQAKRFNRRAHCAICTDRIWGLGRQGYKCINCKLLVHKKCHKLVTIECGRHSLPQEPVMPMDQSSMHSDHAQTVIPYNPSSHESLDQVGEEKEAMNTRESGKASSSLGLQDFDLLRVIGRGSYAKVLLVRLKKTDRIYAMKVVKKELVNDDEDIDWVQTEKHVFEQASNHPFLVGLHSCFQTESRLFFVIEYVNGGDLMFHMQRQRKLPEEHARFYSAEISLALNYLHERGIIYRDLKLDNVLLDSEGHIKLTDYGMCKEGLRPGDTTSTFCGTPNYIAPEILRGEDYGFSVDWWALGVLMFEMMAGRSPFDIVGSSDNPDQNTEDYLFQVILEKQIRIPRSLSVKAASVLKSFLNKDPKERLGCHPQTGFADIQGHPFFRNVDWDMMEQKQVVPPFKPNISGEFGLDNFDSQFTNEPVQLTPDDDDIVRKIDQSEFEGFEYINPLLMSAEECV
T22 sequence (O96017 whole entry): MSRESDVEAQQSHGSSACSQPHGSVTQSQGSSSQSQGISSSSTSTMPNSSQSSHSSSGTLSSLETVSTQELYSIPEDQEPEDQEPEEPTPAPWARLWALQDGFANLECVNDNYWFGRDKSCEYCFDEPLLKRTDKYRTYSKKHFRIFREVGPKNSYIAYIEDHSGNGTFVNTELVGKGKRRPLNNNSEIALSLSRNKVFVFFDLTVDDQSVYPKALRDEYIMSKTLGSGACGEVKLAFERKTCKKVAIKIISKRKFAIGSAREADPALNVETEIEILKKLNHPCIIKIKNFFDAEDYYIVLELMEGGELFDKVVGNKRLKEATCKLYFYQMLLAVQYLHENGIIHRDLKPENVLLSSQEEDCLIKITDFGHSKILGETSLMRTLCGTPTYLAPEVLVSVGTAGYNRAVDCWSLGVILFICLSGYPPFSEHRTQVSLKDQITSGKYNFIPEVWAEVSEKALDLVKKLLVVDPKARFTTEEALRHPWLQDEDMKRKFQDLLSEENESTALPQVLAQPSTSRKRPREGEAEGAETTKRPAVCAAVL
T9 sequence (P07947 whole entry, species assumed): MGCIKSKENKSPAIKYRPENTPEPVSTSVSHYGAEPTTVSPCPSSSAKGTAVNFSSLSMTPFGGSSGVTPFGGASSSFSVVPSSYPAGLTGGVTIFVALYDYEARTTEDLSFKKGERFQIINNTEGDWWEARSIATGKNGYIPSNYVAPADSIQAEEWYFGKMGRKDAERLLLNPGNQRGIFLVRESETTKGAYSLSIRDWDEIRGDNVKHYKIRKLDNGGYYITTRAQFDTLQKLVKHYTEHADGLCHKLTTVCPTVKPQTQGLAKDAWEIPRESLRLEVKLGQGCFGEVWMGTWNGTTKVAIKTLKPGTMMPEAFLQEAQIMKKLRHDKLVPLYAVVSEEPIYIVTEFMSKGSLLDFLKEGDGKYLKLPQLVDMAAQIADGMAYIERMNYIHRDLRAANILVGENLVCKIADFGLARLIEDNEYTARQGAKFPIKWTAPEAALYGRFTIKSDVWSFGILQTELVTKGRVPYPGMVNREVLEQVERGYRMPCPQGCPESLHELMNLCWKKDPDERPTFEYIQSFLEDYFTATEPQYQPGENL

O=C(N/N=C1\CCc2c(Cl)ccc(O)c21)c1cccc(S(=O)(=O)N2CCOCC2)c1 [ZY0511, (E)‐N'‐(2, 3‐dihydro‐1H‐inden‐1‐ylidene) benzohydrazides]
tumor growth inhibition (TGI) (Hep3B xenograft): 52.70% | tumor growth inhibition (TGI) (HepG2 xenograft): 58.29% | inhibition rate of EdU‐positive cells (PLC/PRF/5): 9.2% | apoptotic rate (Hep3B): 6.98% | apoptotic rate (HepG2): 6.49% | inhibition at 1 µM (Fes): 24% | inhibition at 1 µM (CK1γ1): 12% | inhibition at 1 µM (Bmx): 17% | inhibition at 1 µM (CSK): 4% | inhibition at 1 µM (Abl (T315I)): 1% | activation at 1 µM (IGF-1R; IGF-1R, ZY0511 1 µM, read-out: Activation rate): 185% | IC50 (IGF-1R; IGF‐1R): > 10 µM | activation at 1 µM (MAPK2): 16% | activation at 1 µM (cKit (D816H)): 2% | inhibition at 1 µM (Yes): 0% | inhibition at 1 µM (BRK): 4% | inhibition at 1 µM (PKD2): 2% | activation at 1 µM (ALK): 23% | inhibition at 1 µM (NIM1): 2% | activation at 1 µM (IKKα): 13% | inhibition at 1 µM (Ros): 11% | inhibition at 1 µM (HIPK3): 6% | activation at 1 µM (cKit): 14% | inhibition at 1 µM (FAK): 3% | inhibition at 1 µM (EGFR (L861Q)): 6% | inhibition at 1 µM [1]: 6% | inhibition at 1 µM (MST3): 35% | activation at 1 µM (CHK2): 2% | activation at 1 µM (EphA2): 5% | inhibition at 1 µM (PKCι): 2% | inhibition at 1 µM (EGFR (L858R)): 8% | inhibition at 1 µM (LKB1): 15% | inhibition at 1 µM (FGFR4): 14% | inhibition at 1 µM (B-Raf): 29%
